Laboratory results from US20050070594A1, “Use of angiotensin II receptor antagonists” (Boehringer Ingelheim International GmbH, priority 2003, published 2005).
Structures can show the parent of a compound that is named as a salt.

Assays:
[1] = target: T1, human PPARgamma-ligand binding domain (LBD) (Homo sapiens, UniProt P37231); experiment: AlphaScreen: recruiting of biotinylated LXXLL peptide of cofactor CBP to GST-PPARgamma-LBD; type: biochemical; details: concentrations of up to 50 μM
T1 construct: codes for the amino acids 205-505 of the human PPARgamma2 transcription factor; made in house; host or cells: E. coli BL21(DE3), vector pGEX-4T-1
T1 sequence (P37231 205-505): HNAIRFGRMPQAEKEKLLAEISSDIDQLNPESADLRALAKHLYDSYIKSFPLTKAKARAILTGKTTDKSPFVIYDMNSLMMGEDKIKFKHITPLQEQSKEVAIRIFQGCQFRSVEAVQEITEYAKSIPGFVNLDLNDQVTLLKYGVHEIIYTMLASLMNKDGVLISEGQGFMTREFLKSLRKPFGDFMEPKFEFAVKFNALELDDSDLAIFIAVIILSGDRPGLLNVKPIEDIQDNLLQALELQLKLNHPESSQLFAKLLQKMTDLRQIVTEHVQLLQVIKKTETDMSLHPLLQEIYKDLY
Description: Protein containing the human PPARgamma-ligand binding domain (LBD) is prepared as a GST fusion protein in E.coli and purified by affinity chromatography. […] The fusion protein is expressed in the E.coli strain BL21(DE3) recommended for pGEX vectors after induction with 0.2 mM IPTG for 4 hours at 25° C. The bacteria are pelleted after the induction and frozen in batches in PBS, pH 7.4. After opening up in a French Press, the dissolved GST-PPARgamma-LBD-fusion protein is purified using a GSTrap column (Pharmacia). Elution is carried out by the addition of 20 mM reduced glutathione.
The GST-PPARgamma-LBD-protein fractions are desalinated using a HiTrap desalting column (Pharmacia) and the protein concentration is determined using a standard assay.
The assay buffer consists of 25 mM Hepes pH7.4, 100 mM NaCl,1 mM DTT, 0.1% Tween-20, 0.1% BSA. […] The final DMSO concentration in the assay is 1% (v/v). A 1% DMSO solution is used as the background control (NSB). The measurement is done using a Packard fusion measuring device.

[2] = target: T2, human PPARgamma-ligand binding domain (LBD) (Homo sapiens, UniProt P37231); experiment: SPA assay: displacement of 3H-labelled rosiglitazone from GST-PPARgamma-LBD; details: NSB 217, Bmax 911
T2 sequence (P37231 205-505): T1 sequence (P37231 205-505)
T2 sequence (P19793 220-461 partner limits assumed): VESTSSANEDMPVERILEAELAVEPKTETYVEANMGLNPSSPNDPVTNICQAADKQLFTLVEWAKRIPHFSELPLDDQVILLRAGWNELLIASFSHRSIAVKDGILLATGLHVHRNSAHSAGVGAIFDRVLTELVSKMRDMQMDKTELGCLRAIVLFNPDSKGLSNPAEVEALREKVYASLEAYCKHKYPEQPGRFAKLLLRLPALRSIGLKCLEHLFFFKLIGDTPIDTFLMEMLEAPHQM
Description: Protein containing the human PPARgamma-ligand binding domain (LBD) is prepared as a GST fusion protein in E.coli and purified by affinity chromatography. To do this, a DNA section which codes for the amino acids 205-505 of the human PPARgamma2 transcription factor (cf. Genbank entry U79012) is subcloned via the additionally introduced restriction cutting sites BamH I and Xho I into the expression vector pGEX-4T-1 (Amersham) and the sequence of the section is monitored. […] The bacteria are pelleted after the induction and frozen in batches in PBS, pH 7.4. After opening up in a French Press, the dissolved GST-PPARgamma-LBD-fusion protein is purified using a GSTrap column (Pharmacia). Elution is carried out by the addition of 20 mM reduced glutathione. The GST-PPARgamma-LBD-protein fractions are desalinated using a HiTrap desalting column (Pharmacia) and the protein concentration is determined using a standard assay. Protein containing the human RXRalpha ligand binding domain (LBD) is prepared as a His tag fusion protein in E.coli and purified by affinity chromatography. To do this a DNA section which codes for the amino acids 220-461 of the human RXRalpha transcription factor (cf. Genbank entry NM_002957, nt 729-1457) is subcloned via the additionally introduced restriction cutting sites BamH I and Not I into the expression vector pET28c (Novagen) and the sequence of the section is monitored. […] The bacteria are pelleted after the expression and frozen in batches in PBS, pH 7.4. After opening up in a French Press, the dissolved His-RXRalpha-LBD-fusion protein is purified using a HiTrap chelating column (Pharmacia). Elution is carried out using a 500 mM imidazole step. The His-RXRalpha-LBD protein fractions are desalinated using a HiTrap desalting column (Pharmacia) and the protein concentration is determined using a standard assay. A description of the SPA assay format can be found in Mukheriee R et al., J Steroid Biochem Mol Biol (2002) 81:217-225.

[3] = target: T3, ligand binding domain of the human PPARgamma2 transcription factor (Gal4 DNA binding domain fusion) (Homo sapiens, UniProt P37231); experiment: Luciferase activity in stably transformed PPARgamma reporter cell line (CHO-K1 clone 11); type: cell-based; details: 24 hours
T3 construct: codes for amino acids 205-505 of the human PPARgamma2 transcription factor; expressed in transfected cells
T3 sequence (P37231 205-505): T1 sequence (P37231 205-505)
Description: The resulting plasmid pFA-CMV/hPPARgamma2-LBD codes N-terminally of the PPARgamma-LBD in the same reading frame for a Gal4 DNA binding domain. In addition the plasmid codes for a neomycin resistance.
The cell line CHO-K1 (ATCC CCL-61) is cotransfected with the plasmids pFA-CMV/hPPARgamma2-LBD and pFR-Luc (Stratagene). pFR-Luc codes for the luciferase gene under the control of a five-times repeated yeast Gal4 binding site. The transfection is carried out with lipofectamine2000 in accordance with the manufacturer's instructions.
After six days' cultivation the cells are passaged and kept in culture for another 10 days. The resulting neomycin-resistant colonies are picked out under the microscope and transferred into 96 well-dishes and cultured.
The test substances are brought to 100 times the desired concentration with a suitable solvent, e.g. DMSO, and diluted 1:100 with the medium placed in the cell culture plate. The solvent used, e.g. DMSO, is used as the background control in the same concentration.
Luminescence is measured after a five minute wait using a Packard TopCount NXT. The luciferase activity is obtained by integrating the relative luciferase units (RLU) of the first ten seconds after the start of measurement.

[4] = animal model; cited from earlier work
[5] = system: Adipose Protein 2 (aP2) expression; experiment: Stimulation of aP2 expression in 3T3-L1 cells (real time PCR); type: cell-based, mouse; details: 10 μmol/L
From the text: 3T3-L1 mouse preadipocytes are cultivated in DMEM (Dulbecco's modified eagle medium) with 10% foetal calf serum (FBS). PC12W cells are cultivated in DMEM with 5% FBS and 10% equine serum. In both cases the media contain 1% penicillin/streptomycin.
The differentiation of adipocytes is induced 2-3 days after cell confluence by adding a differentiating solution. This contains • 1 μmol/L of dexamethasone, • 0.5 mmol/L of 3-isobutyl-1-methylxanthine, • 1.67 μmol/L of insulin, and • 10% FBS.
Then the cells are stimulated for another 48 hours before finally being analysed (day 4).
RNA isolation, reverse transcription and quantification of gene expression are carried out using an ABI 7000 sequence detection system-for real time PCR (described in Janke et al, Diabetes 51:1699-707, 2002). The endogenous control used for the real time PCR consists of the household genes 18S rRNA and hypoxanthine guanine phosphoribosyl transferase (hprt).

[6] = Dissolution of active substances from tablets; type: physicochemical; details: 900 ml 0.1 M phosphate buffer pH 7.5, 75 rpm

SMILES | direct activation of the PPARgamma-LBD / recruiting of the LXXLL peptide [1] | SPA signal, bound 3H-rosiglitazone (MW) ([2]; 1.00E−04 M test substance) | SPA signal, bound 3H-rosiglitazone (MW) ([2]; 1.00E−05 M test substance) | SPA signal, bound 3H-rosiglitazone (MW) ([2]; 1.00E−06 M test substance) | SPA signal, bound 3H-rosiglitazone (MW) ([2]; 1.00E−07 M test substance) | SPA signal, bound 3H-rosiglitazone (MW) ([2]; 3.00E−05 M test substance) | SPA signal, bound 3H-rosiglitazone (MW) ([2]; 3.00E−06 M test substance) | SPA signal, bound 3H-rosiglitazone (MW) ([2]; 3.00E−07 M test substance) | luciferase activity (MW) ([3]; 1.00E−04 M) | luciferase activity (MW) ([3]; 1.00E−05 M) | luciferase activity (MW) ([3]; 1.00E−06 M) | luciferase activity (MW) ([3]; 3.00E−05 M) | luciferase activity (MW) ([3]; 3.00E−06 M) | luciferase activity (MW) ([3]; 3.00E−07 M) | insulin sensitivity [4] | stimulation of aP2 expression, factor [5] | dissolved after 30 minutes ([6]; first batch) | dissolved after 30 minutes ([6]; second batch) | dissolved after 30 minutes ([6]; third batch)
CCCCC1=NC2(CCCC2)C(=O)N1Cc1ccc(-c2ccccc2-c2nnn[nH]2)cc1 [irbesartan] | does not result in any direct activation | 510 | 723 | 815 | 913 | 648 | 779 | 810 | 29600 RLU | 3292 RLU | 657 RLU | 22133 RLU | 1028 RLU | 491 RLU | Improvement to the insulin sensitivity |  |  |  | 
CCCCc1nc(Cl)c(CO)n1Cc1ccc(-c2ccccc2-c2nn[nH]n2)cc1 [losartan] | does not result in any direct activation | 611 | 787 | 901 | 915 | 784 | 814 | 835 | 11322 RLU | 709 RLU | 589 RLU | 3271 RLU | 672 RLU | 874 RLU |  |  |  |  | 
CCc1ccc(CCOc2ccc(CC3SC(=O)NC3=O)cc2)nc1 (stereo not drawn) [pioglitazone] |  |  |  |  |  |  |  |  |  |  |  |  |  |  |  | 4.5±1 |  |  | 
CCCc1nc2c(C)cc(-c3nc4ccccc4n3C)cc2n1Cc1ccc(-c2ccccc2C(=O)O)cc1 [telmisartan sodium salt] |  |  |  |  |  |  |  |  |  |  |  |  |  |  |  |  | 92±1.5% | 96±1.8% | 100±1.0%
